Results reported in patent publication US11149253B2, “Small molecule compound combination for reprogramming digestive tract derived epithelial cells to endodermal stem/progenitor cells, reprogramming method and application” (INSTITUE OF TRANSFUSION MEDICINE, ACADEMY OF MILITARY …, priority 2016, dated 2021).

Columns and labels:
[1] = tested on: human gastric epithelial cells (hGECs); assay: Reprogramming of human gastric epithelial cells (hGECs) to induced endodermal progenitor cells (hiEndoPCs); clonal formation efficiency; format: cell-based; details: aGSEMFs supporting cells; for clonal formation efficiency when the compound was removed from 8M: removed one by one from 8 small molecule compounds (8M), day 15; for clonal formation efficiency when the compound was removed from BBRS: removed one by one from BBRS combination
Experimental: 1. Proliferation of the initiating cells: Primary isolated human gastric epithelial cells (hGECs) or duodenal epithelial cells (hDECs) were used as initiating cells, and cultured in Kubta medium (prepared according to the literature, literature source: Kubota, H., and Reid, L. M. (2000). Clonogenic hepatoblasts, common precursors for hepatocytic and biliary lineages, are lacking classical major histocompatibility complex class I antigen. Proc. Natl. Acad. Sci. USA 97, 12132-12137) at 37° C. in a 5% CO2 incubator for 4-5 days, and the initiating cells were expanded.
2. Preparation of trophoblast cells: adult human gastric subepithelial myofibroblasts (aGSEMFs, the cells were obtained by separation of gastric tissue matrix layers, frozen in large quantities after culture and proliferation, and resuscitated in advance when necessary) as trophoblast cells were treated with mitomycin-C (10 μg/mL, for the purpose of losing mitosis of trophoblast cells) for 2-3 hours, washed with PBS for 3-4 times, the cells were digested by TrypLE enzyme, and then the cells were washed;
3. When human gastric epithelial cells (hGECs) or duodenal epithelial cells (hDECs) were cultured until day 5-6, the treated gastric subepithelial myofibroblasts were added at a suitable density (generally, density of 1-3×10^5 per square centimeter) to human gastric epithelial cells (hGECs) or duodenal epithelial cells (hDECs) being cultured, and placed at 37° C. in a 5% CO2 incubator overnight (12-16 hours);
4. Reprogramming culture: on the second day after the addition of gastric subepithelial myofibroblasts, the medium was changed to 8M reprogramming medium, and changed every 2-3 days, and continuous observation was performed. Generally, induced endodermal progenitor cells (hiEndoPCs) were obtained after culturing for 1 week or 2 weeks more (7-15 days).
1. Calculation of the total number of clones.
2. Calculation of the area of different clones using the microscope graticule: the area of each microscope microlattice was 0.0625 mm^2, and the number of lattices occupied by the clone multiplied by 0.0625 mm^2 was the area of each clone.
3. The evaluation of the efficiency of reprogramming is proformed by colligating number of clones and the area of the clones.
Since the clonal morphology produced on day 15 of reprogramming was most typical (FIGS. 8E and 8F), colony formation efficiency was usually calculated at this time point. However, the growth rate of clones was faster from day 7 to day 15, and many clones were fused together to form a large clone upon the time point for calculation (FIG. 8B), so the number of clones was less upon calculation, but the total area was increasing. In order to reflect the reprogramming effect more objectively, the present experiment colligated the total number of clones and the number of clones and clone area under different areas, as the calculation method of reprogramming efficiency. Calculation of the area of different clones using the microscope graticule: the area of each microscope microlattice was 0.0625 mm^2, and the number of lattices occupied by the clone multiplied by 0.0625 mm^2 was the area of each clone. The calculation method for different sizes of cloned areas was shown in FIG. 9, and the calculation results were shown in Table 4.
1) The trophoblast cells screened in the second part were used as the supporting cells, and the small molecules were removed one by one based on the culture conditions for above-mentioned 8 small molecule compounds (8M), and the indispensable small molecules were first screened.
2) Based on the small molecule compound combinations screened in the step 1), the small molecule compounds were successively removed one by one so that the best small molecule compound combination (with highest reprogramming efficiency) and the combination with fewest small molecule compounds (guaranteed for the formation of the clone) were finally found. […]

hiEndoPCs-Pans = assay: C-peptide release of hiEndoPC-derived pancreatic cells (ELISA); format: cell-based, human; details: insulin secretion promoter stimulation of hiEndoPCs-Pans
Experimental: 2. The adhered cells were induced to differentiate to the pancreas according to four stages.
2.1 MCDB 131 medium (purchased from Gibco)+1.5 g/L of sodium bicarbonate+2 mM (concentration) 2 mM of Glutamax (Glutamine)+10 mM of final glucose concentration (glucose)+2% of BSA (bovine serum albumin)+0.25 mM of ascorbic acid (vitamin C)+50 ng/mL of FGF7 (fibroblast growth factor 7)+0.25 μM of SANT-1+1 μM of retinoic acid (RA)+100 nM of LDN193189+1:200 ITS-X (insulin-Transferrin-selenium-ethanolamine complex solution)+200 nM TPB, cultured for 2 days.
2.2 MCDB 131 medium+1.5 g/L of sodium bicarbonate+2 mM of Glutamax+10 mM of final glucose concentration+2% of BSA+0.25 mM of ascorbic acid+2 ng/mL of FGF7+0.25 μM of SANT-1+0.1 μM of retinoic acid+200 nM of LDN193189+1:200 ITS-X+100 nM of TPB, cultured for 2 days. […]
13. The OD value was measured at a wavelength of 450 nm on a microplate reader within 30 minutes, and the results were calculated.

**Q.** O=C(NOC[C@H](O)CO)c1ccc(F)c(F)c1Nc1ccc(I)cc1F [PD0325901] was tested. Which “clonal formation efficiency when the compound was removed from 8M” value (“clonal formation efficiency … from 8M” below) [1] did it give?
**A.** Its value is “increased”.

**Q.** How did the “clonal formation efficiency … from 8M” value [1] turn out when O=C(O)/C=C(/CCc1ccc(Cl)cc1)c1ccccc1 [PS48] was run?
**A.** Its value is “increased”.

**Q.** With COc1cc2nc(N3CCCN(C)CC3)nc(NC3CCN(Cc4ccccc4)CC3)c2cc1OC [Bix01294] as the molecule, how does the “clonal formation efficiency … from 8M” value [1] read?
**A.** Its value is “obviously decreased”.

**Q.** What about the “clonal formation efficiency when the compound was removed from BBRS” value (“clonal formation efficiency … from BBRS” for short) [1] of the same molecule?
**A.** The value was “significantly decreased”.

**Q.** How did the “clonal formation efficiency … from 8M” value [1] turn out when Fructose diphosphate [FBP] was run?
**A.** Its value is “increased”.

**Q.** With COC(=O)C1=C(C)NC(C)=C([N+](=O)[O-])C1c1ccccc1C(F)(F)F (stereo not shown) [Bay K 8644] as the molecule, how does the “clonal formation efficiency … from 8M” value [1] read?
**A.** Its value is “obviously decreased”.

**Q.** And the “clonal formation efficiency … from BBRS” value [1]?
**A.** The value was “significantly decreased”.

**Q.** Which results are given for O=C(O)C(Cc1c[nH]c2ccccc12)N1C(=O)c2ccccc2C1=O (stereo not shown) [RG108]?
**A.** clonal formation efficiency when the compound was removed from 8M [1]: obviously decreased; clonal formation efficiency when the compound was removed from BBRS [1]: significantly decreased

**Q.** Which “clonal formation efficiency … from 8M” value [1] does the source give for CCCC(CCC)C(=O)O [VPA, Valproic Acid] here?
**A.** The value was “did not change significantly”.

**Q.** How did the “release of C peptide” value (hiEndoPCs-Pans) turn out when [Cl-].[K+] [KCL] was run?
**A.** Its value is “significantly increased”.

**Q.** How did the “clonal formation efficiency compared with BBRS” value ([1]; SB431542 as basis) turn out when NC(=O)c1ccc(-c2nc(-c3ccc4c(c3)OCO4)c(-c3ccccn3)[nH]2)cc1 [SB431542] was run?
**A.** The value was “not as good as the optimal combination of BBRS”.

**Q.** And the “clone formation with the fewest small molecules” value ([1]; SB431542 as basis)?
**A.** The value was “capable for forming the clones”.

**Q.** What about the “clonal formation efficiency … from 8M” value [1] of the same molecule?
**A.** The value was “clones were not produced”.

**Q.** And the “clonal formation efficiency … from BBRS” value [1]?
**A.** Its value is “no clones were formed”.

**Q.** With CCCCNC(=O)NS(=O)(=O)c1ccc(C)cc1 [Tolbutamiden] as the molecule, how does the “release of C peptide” value (hiEndoPCs-Pans) read?
**A.** The value was “significantly increased”.
